Assay results taken from the supplement of paper PMC10307832.

What was measured:
Experiment in all cases: relative viability (nuclei count vs DMSO), 5 days (fraction); higher = more cells survive
Linifanib + Palbociclib = compound: Cc1ccc(F)c(NC(=O)Nc2ccc(-c3cccc4[nH]nc(N)c34)cc2)c1 [Linifanib] + CC(=O)c1c(C)c2cnc(Nc3ccc(N4CCNCC4)cn3)nc2n(C2CCCC2)c1=O [Palbociclib] (partner 0.5 µM)
Summary of the method: (§1)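 Lung cancer cell lines were pin-tool dosed in 1536-well plates on the day after seeding, with either a lone drug or a fixed anchor-drug dose plus five library-drug doses (not always all listed) in √10 steps. Nuclei were counted on 4× images after 5 days. Relative viability is the ratio of treated-well to vehicle-well nuclei counts, with each value a median of duplicate plates.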

Linifanib + Luminespib = compound: Cc1ccc(F)c(NC(=O)Nc2ccc(-c3cccc4[nH]nc(N)c34)cc2)c1 [Linifanib] + CCNC(=O)c1noc(-c2cc(C(C)C)c(O)cc2O)c1-c1ccc(CN2CCOCC2)cc1 [Luminespib] (partner 0.01 µM)
Summary of the method: as §1

Linifanib + Pictilisib = compound: Cc1ccc(F)c(NC(=O)Nc2ccc(-c3cccc4[nH]nc(N)c34)cc2)c1 [Linifanib] + CS(=O)(=O)N1CCN(Cc2cc3nc(-c4cccc5[nH]ncc45)nc(N4CCOCC4)c3s2)CC1 [Pictilisib] (partner 1 µM)
Summary of the method: as §1

Linifanib + Dasatinib = compound: Cc1ccc(F)c(NC(=O)Nc2ccc(-c3cccc4[nH]nc(N)c34)cc2)c1 [Linifanib] + Cc1nc(Nc2ncc(C(=O)Nc3c(C)cccc3Cl)s2)cc(N2CCN(CCO)CC2)n1 [Dasatinib] (partner 0.075 µM)
Summary of the method: as §1

Linifanib + Phenformin = compound: Cc1ccc(F)c(NC(=O)Nc2ccc(-c3cccc4[nH]nc(N)c34)cc2)c1 [Linifanib] + N=C(N)NC(=N)NCCc1ccccc1 [Phenformin] (partner 250 µM)
Summary of the method: as §1

Linifanib + Vorinostat = compound: Cc1ccc(F)c(NC(=O)Nc2ccc(-c3cccc4[nH]nc(N)c34)cc2)c1 [Linifanib] + O=C(CCCCCCC(=O)Nc1ccccc1)NO [Vorinostat] (partner 1 µM)
Summary of the method: as §1

Row | Cell Line | relative viability (Linifanib + Palbociclib; first compound 0.03162 µM) | relative viability (Linifanib + Palbociclib; first compound 0.1 µM) | relative viability (Linifanib + Palbociclib; first compound 0.3162 µM) | relative viability (Linifanib + Luminespib; first compound 0.03162 µM) | relative viability (Linifanib + Luminespib; first compound 0.1 µM) | relative viability (Linifanib + Luminespib; first compound 0.3162 µM) | relative viability (Linifanib + Pictilisib; first compound 0.03162 µM) | relative viability (Linifanib + Pictilisib; first compound 0.1 µM) | relative viability (Linifanib + Pictilisib; first compound 0.3162 µM) | relative viability (Linifanib + Dasatinib; first compound 0.03162 µM) | relative viability (Linifanib + Dasatinib; first compound 0.1 µM) | relative viability (Linifanib + Dasatinib; first compound 0.3162 µM) | relative viability (Linifanib + Phenformin; first compound 0.03162 µM) | relative viability (Linifanib + Phenformin; first compound 0.1 µM) | relative viability (Linifanib + Phenformin; first compound 0.3162 µM) | relative viability (Linifanib + Vorinostat; first compound 0.03162 µM) | relative viability (Linifanib + Vorinostat; first compound 0.1 µM) | relative viability (Linifanib + Vorinostat; first compound 0.3162 µM)
1 | NCI-H2228 | 0.803 | 0.85 | 0.818 | 0.15 | 0.155 | 0.17 | 0.415 | 0.64 | 0.386 | 0.541 | 0.556 | 0.538 | 0.242 | 0.296 | 0.301 | 0.794 | 0.808 | 0.603
2 | LCLC-103H | 0.474 | 0.417 | 0.464 | 0.971 | 0.973 | 0.889 | 0.71 | 0.596 | 0.693 | 0.434 | 0.621 | 0.399 | 0.329 | 0.338 | 0.329 | 0.848 | 0.764 | 0.734
3 | 201T | 0.369 | 0.371 | 0.348 | 1.1 | 1.06 | 1.03 | 0.69 | 0.704 | 0.668 | 0.571 | 0.623 | 0.559 | 0.503 | 0.473 | 0.422 | 1.01 | 0.981 | 1.02
4 | NCI-H1792 | 0.611 | 0.666 | 0.621 | 0.331 | 0.353 | 0.464 | 0.213 | 0.311 | 0.333 | 0.622 | 0.774 | 0.819 | 0.517 | 0.519 | 0.337 | – | – | –
5 | LXF-289 | 0.668 | 0.612 | 0.564 | 0.766 | 0.866 | 0.674 | 0.849 | 0.874 | 0.784 | 0.29 | 0.288 | 0.236 | 0.558 | 0.536 | 0.496 | 0.85 | 0.762 | 0.807
6 | LCLC-97TM1 | 0.212 | 0.243 | 0.196 | 0.721 | 0.766 | 0.595 | 0.208 | 0.196 | 0.169 | 0.887 | 1.04 | 0.678 | 0.423 | 0.437 | 0.341 | 0.739 | 0.807 | 0.603
7 | NCI-H1395 | 0.656 | 0.673 | 0.691 | 0.684 | 0.824 | 0.622 | 0.676 | 0.715 | 0.525 | 0.3 | 0.394 | 0.405 | 0.444 | 0.454 | 0.414 | 0.824 | 0.71 | 0.633
8 | CAL-12T | 0.485 | 0.446 | 0.419 | 0.438 | 0.751 | 0.364 | 0.439 | 0.478 | 0.33 | 0.457 | 0.508 | 0.343 | 0.636 | 0.617 | 0.458 | 0.884 | 0.986 | 0.724
9 | NCI-H1975 | 0.6 | 0.783 | 0.551 | 0.202 | 0.139 | 0.251 | 0.298 | 0.3 | 0.367 | 0.396 | 0.367 | 0.344 | 0.418 | 0.433 | 0.406 | 0.649 | 0.735 | 0.697
10 | EKVX | 0.447 | 0.383 | 0.415 | 0.838 | 0.962 | 0.854 | 0.508 | 0.512 | 0.454 | 0.662 | 0.662 | 0.547 | 0.241 | 0.25 | 0.194 | 0.731 | 0.774 | 0.75
11 | NCI-H1437 | 0.344 | 0.331 | 0.311 | 1.12 | 1.17 | 1.04 | 0.529 | 0.495 | 0.471 | 0.375 | 0.407 | 0.378 | 0.32 | 0.296 | 0.276 | 0.851 | 0.918 | 0.819
12 | RERF-LC-KJ | 1.07 | 1.1 | 1.05 | 1.3 | 1.28 | 1.25 | 0.564 | 0.6 | 0.484 | 0.836 | 0.983 | 0.937 | 0.404 | 0.479 | 0.439 | 0.737 | 0.804 | 0.727
13 | NCI-H1755 | 0.47 | 0.461 | 0.429 | 0.586 | 0.599 | 0.447 | 0.493 | 0.503 | 0.397 | 0.458 | 0.406 | 0.388 | 0.666 | 0.621 | 0.571 | 0.761 | 0.765 | 0.892
14 | NCI-H1793 | 0.31 | 0.349 | 0.292 | 0.169 | 0.173 | 0.199 | 0.336 | 0.285 | 0.332 | 0.394 | 0.439 | 0.406 | 0.278 | 0.379 | 0.321 | 0.777 | 0.796 | 0.745
15 | HCC-366 | 0.398 | 0.427 | 0.373 | – | – | – | 0.148 | 0.21 | 0.214 | 0.554 | 0.648 | 0.582 | 0.575 | 0.62 | 0.635 | 0.371 | 0.378 | 0.359
16 | HCC-78 | 0.513 | 0.433 | 0.447 | – | – | – | 0.24 | 0.21 | 0.237 | 0.441 | 0.539 | 0.37 | 0.675 | 0.761 | 0.686 | 0.419 | 0.427 | 0.455
17 | HCC-44 | 0.996 | 0.955 | 1.01 | 0.903 | 0.954 | 1.05 | 0.605 | 0.674 | 0.595 | – | – | – | 0.29 | 0.195 | 0.248 | 1.22 | 1.04 | 1.14
18 | SW 900 | 0.551 | 0.603 | 0.514 | 0.168 | 0.172 | 0.153 | – | – | – | 0.824 | 0.548 | 0.578 | 0.659 | 0.779 | 0.575 | 0.57 | 0.603 | 0.485
